How the values were obtained:
[1] = biological target: T1, GST-hMEK1 and mERK2 (Homo sapiens, UniProt Q02750); assay type: biochemical; details: minimum concentration causing 50% inhibition in vitro assays; MEK kinase inhibition
T1 construct: purified GST-hMEK1 and mERK2 enzymes; fused on or other part: GST tag on hMEK1
Procedure: In order to identify ideal inhibitory compounds in a high throughput-screening (HTS) format a 96-well radiolabel incorporation format assay utilizing purified GST-hMEK1 and mERK2 enzymes was developed. Compounds were diluted from dimethylsulfoxide (DMSO) stocks into 1× Simplified Assay Buffer (SAB) (20 mM HEPES and 10 mM MgCl2). A typical 25 microliter assay contained 0.002 nanomoles MEK^CA, 0.02 nanomoles ERK, 0.25 nanomoles MBP, 0.25 nanomoles unlabeled ATP, and 0.1 μCi [γ^33P] ATP. The screening assay essentially comprised four additions. Five μ1 of diluted compound were dispensed to 96-well assay plates. Ten μl of 2.5× enzyme cocktail (MEK^CA and ERK only) were then added to each well followed by a pre-incubation for 15 minutes at 37° C. […] Finally, 200 μl of 10% trichloroacetic acid (TCA) were added and incubated for 30 minutes to halt the reaction and precipitate radio labeled protein products. A filter plate was placed in the Filtermate Harvester, wetted twice with water, and rinsed twice with 1% pyrophosphate to block nonspecific binding to the glass filter. An assay plate was then scanned and aspirated or harvested onto the filter plate. The filter plate was then washed 12 times with water. Water was displaced by two washes with absolute ethanol and the plate was removed and allowed to air dry for 30 minutes at room temperature. A back seal was applied manually and 40 μl of scintillation cocktail were dispensed per well. A top seal was applied and the plate was counted in the TopCount for two seconds per well.

[2] = test system: MEK-ERK dependent luciferase expression (constitutively activated mutant MEK) in 293T cells; experiment: Cell-based MEK-ERK dependent luciferase reporter assay in 293T cells; details: Homo sapiens, HEK-293T, minimum concentration causing 50% inhibition in cell-based assays, 24 hours incubation
Procedure: Activities of compounds were determined using a cell-based assay system. 293T cells were engineered to express a luciferase reporter protein in response to activation of ERK. ERK was activated by the doxycycline inducible expression of a constitutively activated mutant MEK. The activated MEK mutant had serines 218 and 222 replaced with aspartic acids. Therefore, addition of doxycycline to the media of cells induced an increase in MEK-ERK dependent luciferase expression.
Cells were plated at 5000 cells per well of a 384 well plate in 20 ul of media containing 10 ng/ml doxycycline. Compounds were resuspended in DMSO at a concentration of 20 mM. These compound stocks were diluted at least 200 fold so the concentration of DMSO was never above 0.5%. Cells were incubated with compounds for 24 hours at which time 25 ul of Steady-Glo (Promega Corp.) was added. The plates were then assayed for luminescence. Percent inhibition was calculated by dividing the luminescence of compound treated cells by control cells.

T1 sequence (P63085 2-358): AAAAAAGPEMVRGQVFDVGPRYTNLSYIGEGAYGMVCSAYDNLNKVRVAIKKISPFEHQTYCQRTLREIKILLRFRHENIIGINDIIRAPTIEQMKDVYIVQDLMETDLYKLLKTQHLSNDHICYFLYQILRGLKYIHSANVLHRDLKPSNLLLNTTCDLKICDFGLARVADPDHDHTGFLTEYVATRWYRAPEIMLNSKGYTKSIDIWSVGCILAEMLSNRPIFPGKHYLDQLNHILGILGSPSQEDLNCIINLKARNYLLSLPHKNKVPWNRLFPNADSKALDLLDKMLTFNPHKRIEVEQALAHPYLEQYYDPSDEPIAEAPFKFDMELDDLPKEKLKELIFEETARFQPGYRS
T1 sequence (Q02750 whole entry, the tested form may be a part): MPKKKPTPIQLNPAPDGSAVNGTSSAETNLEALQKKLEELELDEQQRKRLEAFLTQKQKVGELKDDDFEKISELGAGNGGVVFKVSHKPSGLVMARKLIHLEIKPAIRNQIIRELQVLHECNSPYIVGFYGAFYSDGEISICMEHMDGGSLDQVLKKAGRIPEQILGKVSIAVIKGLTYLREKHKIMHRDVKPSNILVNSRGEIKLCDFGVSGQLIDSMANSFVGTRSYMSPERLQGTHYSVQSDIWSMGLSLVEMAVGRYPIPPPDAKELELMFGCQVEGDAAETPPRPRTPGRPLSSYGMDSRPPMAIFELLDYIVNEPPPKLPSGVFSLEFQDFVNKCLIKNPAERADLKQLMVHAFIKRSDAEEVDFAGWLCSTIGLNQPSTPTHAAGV

SMILES | IC50 [1] | EC50 [2]
N#Cc1c(Br)nsc1Nc1ccccc1 [Compound 2] | 10 to 100 µM | < 10 µM
Cc1ccc(Nc2snc(O)c2C#N)cc1 [Compound 3] | 10 to 100 µM | < 10 µM
Cc1cccc(Nc2s[nH]c(=O)c2C#N)c1 [Compound 4] | 10 to 100 µM | 10 to 100 µM
Cc1ccccc1Nc1snc(O)c1C#N [Compound 5] | 10 to 100 µM | 10 to 100 µM
COc1ccc(Nc2snc(O)c2C#N)cc1 [Compound 6] | – | > 100 µM
COc1ccccc1Nc1snc(O)c1C#N [Compound 7] | – | > 100 µM
COc1cccc(Nc2snc(O)c2C#N)c1 [Compound 8] | – | > 100 µM
N#Cc1c(O)nsc1Nc1ccc(Cl)cc1 [Compound 9] | 10 to 100 µM | > 100 µM
N#Cc1c(O)nsc1Nc1cccc(Cl)c1 [Compound 10] | 10 to 100 µM | > 100 µM
N#Cc1c(O)nsc1Nc1ccccc1Cl [Compound 11] | 10 to 100 µM | > 100 µM
CC(C)c1cccc(C(C)C)c1Nc1snc(O)c1C#N [Compound 16] | 10 to 100 µM | 10 to 100 µM
N#Cc1c(O)nsc1Nc1ccccc1C(F)(F)F [Compound 19] | 10 to 100 µM | –
N#Cc1c(O)nsc1N1CCCCC1 [Compound 33] | < 10 µM | –
N#Cc1c(O)nsc1NCC1CCCO1 (stereo not shown) [Compound 34] | < 10 µM | –
N#Cc1c(O)nsc1NCCc1ccc(O)cc1 [Compound 35] | < 10 µM | –
N=C(N)c1c(O)nsc1Nc1ccc(Oc2ccccc2)cc1 [Compound 36] | < 10 µM | –
NC(=O)c1c(O)nsc1Nc1ccc(Oc2ccccc2)cc1 [Compound 37] | < 10 µM | –
N#Cc1c(OC2CCCCC2)nsc1Nc1ccccc1 [Compound 38] | < 10 µM | –
CC(C)Nc1snc(O)c1C#N [Compound 39] | < 10 µM | –
N#Cc1c(O)nsc1NCCCN1CCOCC1 [Compound 40] | < 10 µM | –

Now from value to molecule, other results behind:

IC50 [1] | SMILES | EC50 [2]
< 10 µM | N#Cc1c(O)nsc1Nc1ccccc1 [Compound 1] | 10 to 100 µM
< 10 µM | N#Cc1c(O)nsc1Nc1ccc([N+](=O)[O-])cc1 [Compound 12] | > 100 µM
< 10 µM | N#Cc1c(O)nsc1Nc1cccc2ccccc12 [Compound 13] | < 10 µM
< 10 µM | COc1cc(-c2ccccc2)ccc1Nc1snc(O)c1C#N [Compound 14] | > 100 µM
< 10 µM | CC(C)c1ccc(Nc2snc(O)c2C#N)cc1 [Compound 15] | < 10 µM
< 10 µM | CN(C)c1ccc2ccccc2c1Nc1snc(O)c1C#N [Compound 17] | < 10 µM
< 10 µM | CN(C)c1ccc(Nc2snc(O)c2C#N)c2ccccc12 [Compound 18] | < 10 µM
< 10 µM | Cc1ccc(Nc2snc(N)c2C#N)cc1 [Compound 20] | –
< 10 µM | N#Cc1c(O)nsc1Nc1ccc(N)cc1 [Compound 21] | –
< 10 µM | CC(=O)c1ccc(Nc2snc(O)c2C#N)cc1 [Compound 22] | –
< 10 µM | N#Cc1c(Nc2ccc(Br)cc2)s[nH]c1=O [Compound 24] | –
< 10 µM | COC(=O)c1ccc(Nc2snc(O)c2C#N)cc1 [Compound 25] | –
< 10 µM | N#Cc1c(O)nsc1Nc1ccccc1F [Compound 26] | –
< 10 µM | COC(=O)c1ccccc1Nc1snc(O)c1C#N [Compound 27] | –
< 10 µM | N#Cc1c(O)nsc1Nc1cccnc1 [Compound 29] | –
< 10 µM | N#Cc1c(O)nsc1NC1CCc2ccccc21 (stereo not shown) [Compound 31] | –
< 10 µM | CCCCNc1snc(O)c1C#N [Compound 32] | –
